According to US20090304692A1, “TRIAZINE COMPOUNDS AS PI3 KINASE AND MTOR INHIBITORS” (Wyeth, priority 2008, published 2009):
Where two headings read alike, the source gives them in different places.

What was measured:
Human mTOR (FLAG-TOR) = Human mTOR (FLAG-TOR) (Homo sapiens, UniProt P42345); assay: mTOR kinase assay (DELFIA format, purified enzyme); type: biochemical; settings: read-out: IC50 mTOR
[1] = tested on: human breast MDA-MB-361 tumor cell line; assay: In vitro cell culture growth assay (MTS), MDA-MB-361; type: cell-based; settings: Homo sapiens, MTS cell growth assay, three days after drug treatment, MDA-MB-361 cells, read-out: IC50 MDA-MB-361
PI3K-α = PI3K-α (Homo sapiens, UniProt P42336); assay: PI3K-alpha fluorescence polarization assay; settings: read-out: IC50 PI3Kα
Sequence of PI3K-α (P42336 whole entry, species assumed): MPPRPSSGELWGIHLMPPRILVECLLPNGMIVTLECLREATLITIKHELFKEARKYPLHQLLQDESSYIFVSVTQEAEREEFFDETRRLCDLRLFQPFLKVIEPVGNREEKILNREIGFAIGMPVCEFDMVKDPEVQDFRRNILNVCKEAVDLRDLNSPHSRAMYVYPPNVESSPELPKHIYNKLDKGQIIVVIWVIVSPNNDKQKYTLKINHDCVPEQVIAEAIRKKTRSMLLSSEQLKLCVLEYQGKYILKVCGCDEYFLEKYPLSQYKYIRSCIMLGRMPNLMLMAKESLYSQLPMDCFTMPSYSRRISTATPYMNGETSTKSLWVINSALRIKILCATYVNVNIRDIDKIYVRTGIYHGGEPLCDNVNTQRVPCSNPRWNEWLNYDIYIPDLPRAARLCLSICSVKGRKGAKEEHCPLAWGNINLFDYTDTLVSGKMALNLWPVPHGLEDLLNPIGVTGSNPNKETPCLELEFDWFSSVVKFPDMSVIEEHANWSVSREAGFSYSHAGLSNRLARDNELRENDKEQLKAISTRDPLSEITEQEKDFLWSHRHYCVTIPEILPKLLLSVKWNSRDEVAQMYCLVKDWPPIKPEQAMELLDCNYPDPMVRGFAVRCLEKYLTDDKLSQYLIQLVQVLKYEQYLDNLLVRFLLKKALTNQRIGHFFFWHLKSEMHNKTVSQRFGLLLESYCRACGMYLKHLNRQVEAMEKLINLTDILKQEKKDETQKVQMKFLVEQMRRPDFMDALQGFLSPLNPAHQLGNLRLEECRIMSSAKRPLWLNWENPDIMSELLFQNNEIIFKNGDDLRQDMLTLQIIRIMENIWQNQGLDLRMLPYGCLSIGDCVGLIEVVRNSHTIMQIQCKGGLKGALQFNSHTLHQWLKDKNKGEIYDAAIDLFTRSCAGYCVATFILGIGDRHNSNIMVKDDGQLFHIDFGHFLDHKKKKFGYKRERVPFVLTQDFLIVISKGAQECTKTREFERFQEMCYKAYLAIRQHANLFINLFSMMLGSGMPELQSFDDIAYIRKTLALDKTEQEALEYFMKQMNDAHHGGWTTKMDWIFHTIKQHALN
Sequence of PI3K-α (P27986 whole entry partner, species assumed): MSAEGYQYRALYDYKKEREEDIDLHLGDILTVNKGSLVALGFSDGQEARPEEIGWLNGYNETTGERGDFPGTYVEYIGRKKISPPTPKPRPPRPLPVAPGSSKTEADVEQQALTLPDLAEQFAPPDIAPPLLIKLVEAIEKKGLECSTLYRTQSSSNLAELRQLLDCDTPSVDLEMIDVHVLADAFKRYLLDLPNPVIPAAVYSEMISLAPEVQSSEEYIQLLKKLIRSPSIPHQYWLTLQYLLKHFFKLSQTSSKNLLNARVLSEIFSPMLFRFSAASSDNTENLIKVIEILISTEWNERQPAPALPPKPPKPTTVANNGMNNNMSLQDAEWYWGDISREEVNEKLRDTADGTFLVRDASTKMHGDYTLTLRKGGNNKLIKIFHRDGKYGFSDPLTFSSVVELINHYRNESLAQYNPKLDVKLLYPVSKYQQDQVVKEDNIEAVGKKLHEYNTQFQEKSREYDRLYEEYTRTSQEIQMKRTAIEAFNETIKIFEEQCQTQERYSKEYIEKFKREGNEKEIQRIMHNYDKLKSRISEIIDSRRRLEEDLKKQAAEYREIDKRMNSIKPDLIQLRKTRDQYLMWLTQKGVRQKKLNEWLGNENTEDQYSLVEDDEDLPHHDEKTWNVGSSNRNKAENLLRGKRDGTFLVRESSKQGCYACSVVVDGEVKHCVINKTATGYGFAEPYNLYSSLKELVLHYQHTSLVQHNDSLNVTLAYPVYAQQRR

[2] = tested on: human prostate PC3-mm2 tumor cell line; assay: In vitro cell culture growth assay (MTS), PC3-mm2; type: cell-based; settings: Homo sapiens, PC3MM2, 72 h, MTS cell growth assay, three days after drug treatment, PC3-mm2 cells; read-out: IC50 PC3-mm2
PI3K-γ = PI3K-γ (Homo sapiens, UniProt P48736); assay: PI3K-gamma fluorescence polarization assay; settings: read-out: IC50 PI3Kγ
Sequence of PI3K-γ (P48736 whole entry, species assumed): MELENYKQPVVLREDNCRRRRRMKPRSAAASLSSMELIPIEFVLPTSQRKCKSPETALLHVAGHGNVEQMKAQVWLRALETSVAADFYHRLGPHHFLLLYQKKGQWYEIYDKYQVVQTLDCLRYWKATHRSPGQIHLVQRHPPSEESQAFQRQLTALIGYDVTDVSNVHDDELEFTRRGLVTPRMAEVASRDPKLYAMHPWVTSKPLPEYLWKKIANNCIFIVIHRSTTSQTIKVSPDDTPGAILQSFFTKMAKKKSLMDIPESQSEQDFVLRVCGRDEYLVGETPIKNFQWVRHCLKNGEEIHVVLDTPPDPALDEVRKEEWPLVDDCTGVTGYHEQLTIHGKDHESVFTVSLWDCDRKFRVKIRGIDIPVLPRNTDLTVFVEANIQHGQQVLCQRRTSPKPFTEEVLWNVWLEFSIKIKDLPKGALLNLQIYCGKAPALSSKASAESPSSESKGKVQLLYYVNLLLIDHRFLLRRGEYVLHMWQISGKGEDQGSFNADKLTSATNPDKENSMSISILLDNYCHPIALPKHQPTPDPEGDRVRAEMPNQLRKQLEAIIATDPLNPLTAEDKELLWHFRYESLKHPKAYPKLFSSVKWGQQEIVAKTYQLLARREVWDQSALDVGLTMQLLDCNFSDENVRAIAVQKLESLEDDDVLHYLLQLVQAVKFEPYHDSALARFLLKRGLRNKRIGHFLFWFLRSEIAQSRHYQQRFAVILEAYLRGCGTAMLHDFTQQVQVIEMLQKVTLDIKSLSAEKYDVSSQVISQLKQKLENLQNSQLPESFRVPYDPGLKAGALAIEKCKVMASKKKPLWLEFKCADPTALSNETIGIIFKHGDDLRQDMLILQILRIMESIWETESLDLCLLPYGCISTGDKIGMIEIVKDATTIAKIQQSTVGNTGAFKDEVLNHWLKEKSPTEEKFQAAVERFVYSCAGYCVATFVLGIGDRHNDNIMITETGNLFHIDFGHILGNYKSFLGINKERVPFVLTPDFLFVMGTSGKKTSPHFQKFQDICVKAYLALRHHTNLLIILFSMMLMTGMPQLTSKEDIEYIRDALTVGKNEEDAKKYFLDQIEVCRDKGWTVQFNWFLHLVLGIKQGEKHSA

Sequence of Human mTOR (FLAG-TOR) (P42345 1360-2549 limits assumed): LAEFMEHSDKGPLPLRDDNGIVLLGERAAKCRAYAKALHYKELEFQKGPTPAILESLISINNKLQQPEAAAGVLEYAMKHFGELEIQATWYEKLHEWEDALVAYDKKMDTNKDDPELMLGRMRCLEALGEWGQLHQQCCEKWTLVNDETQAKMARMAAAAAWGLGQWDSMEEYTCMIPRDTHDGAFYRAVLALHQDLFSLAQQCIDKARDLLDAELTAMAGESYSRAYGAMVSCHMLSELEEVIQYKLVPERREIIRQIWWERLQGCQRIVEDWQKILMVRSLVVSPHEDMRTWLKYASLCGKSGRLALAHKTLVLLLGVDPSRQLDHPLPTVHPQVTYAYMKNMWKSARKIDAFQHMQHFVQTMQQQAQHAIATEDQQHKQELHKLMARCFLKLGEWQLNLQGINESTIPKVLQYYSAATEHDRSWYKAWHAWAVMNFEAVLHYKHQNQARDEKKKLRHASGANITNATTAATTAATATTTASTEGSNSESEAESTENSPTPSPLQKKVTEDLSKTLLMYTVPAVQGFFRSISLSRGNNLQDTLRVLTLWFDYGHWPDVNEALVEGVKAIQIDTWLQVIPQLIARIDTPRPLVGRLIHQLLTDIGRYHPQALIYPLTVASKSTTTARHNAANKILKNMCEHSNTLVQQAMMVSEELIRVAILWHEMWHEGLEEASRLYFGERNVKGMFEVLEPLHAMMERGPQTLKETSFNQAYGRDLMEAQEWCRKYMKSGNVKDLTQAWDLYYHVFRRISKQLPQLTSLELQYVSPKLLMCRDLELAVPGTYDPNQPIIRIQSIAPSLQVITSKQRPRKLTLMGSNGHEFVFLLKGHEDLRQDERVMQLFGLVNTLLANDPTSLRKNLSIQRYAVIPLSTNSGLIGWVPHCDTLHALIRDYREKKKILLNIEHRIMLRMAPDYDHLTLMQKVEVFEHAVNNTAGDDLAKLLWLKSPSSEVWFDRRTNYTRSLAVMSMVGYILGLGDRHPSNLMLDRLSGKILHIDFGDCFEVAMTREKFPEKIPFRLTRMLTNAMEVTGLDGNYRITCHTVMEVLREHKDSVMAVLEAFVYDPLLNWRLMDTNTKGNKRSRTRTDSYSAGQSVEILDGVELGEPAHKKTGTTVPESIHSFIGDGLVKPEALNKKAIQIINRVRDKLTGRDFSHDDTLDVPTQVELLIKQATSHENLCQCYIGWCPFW

SMILES	IC50 (Human mTOR (FLAG-TOR)) [nM]	IC50 ([1]; 72 h) [nM]	IC50 (PI3K-α) [nM]	IC50 [2] [nM]	IC50 (PI3K-γ) [nM]	IC50 ([1]; MDA-MB-361, 72 h) [nM]
CN(C)CCN(C)C(=O)c1ccc(NC(=O)Nc2ccc(-c3nc(N4CCOCC4)nc(N4C5CCC4COC5)n3)cc2)cc1 [Example 698, N-[2-(dimethylamino)ethyl]-N-methyl-4-[({4-[4-morpholin-4-yl-6-(3-oxa-8-azabicyclo[3.2.1]oct-8-yl)-1,3,5-triazin-2-yl]phenyl}carbamoyl)amino]benzamide]	0.302	< 3	2.7	6	44.7	
O=C(Nc1ccc(C(=O)NCCO)cc1)Nc1ccc(-c2nc(N3CCOCC3)nc(N3C4CCC3COC4)n2)cc1 [Example 699, N-(2-hydroxyethyl)-4-[({4-[4-morpholin-4-yl-6-(3-oxa-8-azabicyclo[3.2.1]oct-8-yl)-1,3,5-triazin-2-yl]phenyl}carbamoyl)amino]benzamide]	0.3	36	5	40	62.5	
CN(C)CCCNC(=O)c1ccc(NC(=O)Nc2ccc(-c3nc(N4CCOCC4)nc(N4C5CCC4COC5)n3)cc2)cc1 [Example 700, N-[3-(dimethylamino)propyl]-4-[({4-[4-morpholin-4-yl-6-(3-oxa-8-azabicyclo[3.2.1]oct-8-yl)-1,3,5-triazin-2-yl]phenyl}carbamoyl)amino]benzamide]	0.53	5	2.5	20	41.5	
CNCCN(C)C(=O)c1ccc(NC(=O)Nc2ccc(-c3nc(N4CCOCC4)nc(N4C5CCC4COC5)n3)cc2)cc1 [Example 701, N-methyl-N-[2-(methylamino)ethyl]-4-[({4-[4-morpholin-4-yl-6-(3-oxa-8-azabicyclo[3.2.1]oct-8-yl)-1,3,5-triazin-2-yl]phenyl}carbamoyl)amino]benzamide]	0.36	< 30	2	< 30	25	
CC1CN(C(=O)c2ccc(NC(=O)Nc3ccc(-c4nc(N5CCOCC5)nc(N5C6CCC5COC6)n4)cc3)cc2)CC(C)N1 (stereo not shown) [Example 703, 1-{4-[(3,5-dimethylpiperazin-1-yl)carbonyl]phenyl}-3-{4-[4-morpholin-4-yl-6-(3-oxa-8-azabicyclo[3.2.1]oct-8-yl)-1,3,5-triazin-2-yl]phenyl}urea]	0.51		1.5	13	23.5	< 3
O=C(Nc1ccc(-c2nc(N3CCOCC3)nc(N3C4CCC3COC4)n2)cc1)Nc1ccnc(Cl)c1 [Example 746, 1-(2-chloropyridin-4-yl)-3-{4-[4-morpholin-4-yl-6-(3-oxa-8-azabicyclo[3.2.1]oct-8-yl)-1,3,5-triazin-2-yl]phenyl}urea]	1.27	93	23.5	118	99	
O=C(Nc1ccc(-c2nc(N3CCOCC3)nc(N3C4CCC3COC4)n2)cc1)Nc1ccc(-c2nc(N3CCOCC3)nc(N3C4CCC3COC4)n2)cc1 [Example 751, 1,3-bis{4-[4-morpholin-4-yl-6-(3-oxa-8-azabicyclo[3.2.1]oct-8-yl)-1,3,5-triazin-2-yl]phenyl}urea]	3		143	238	404	144
CN(C)C1CCN(C(=O)c2ccc(NC(=O)Nc3ccc(-c4nc(N5CCOCC5)nc(N5C6CCC5COC6)n4)cc3)cc2)CC1 [Example 752, 1-(4-{[4-(dimethylamino)piperidin-1-yl]carbonyl}phenyl)-3-{4-[4-morpholin-4-yl-6-(3-oxa-8-azabicyclo[3.2.1]oct-8-yl)-1,3,5-triazin-2-yl]phenyl}urea]	0.29		1.2	6	18.5	< 3
CN1CCN(CCNC(=O)c2ccc(NC(=O)Nc3ccc(-c4nc(N5CCOCC5)nc(N5C6CCC5COC6)n4)cc3)cc2)CC1 [Example 753, N-[2-(4-methylpiperazin-1-yl)ethyl]-4-[({4-[4-morpholin-4-yl-6-(3-oxa-8-azabicyclo[3.2.1]oct-8-yl)-1,3,5-triazin-2-yl]phenyl}carbamoyl)amino]benzamide]	0.315	4	2	14	31	
CC(C)N1CCN(C(=O)c2ccc(NC(=O)Nc3ccc(-c4nc(N5CCOCC5)nc(N5C6CCC5COC6)n4)cc3)cc2)CC1 [Example 754, 1-{4-[(4-isopropylpiperazin-1-yl)carbonyl]phenyl}-3-{4-[4-morpholin-4-yl-6-(3-oxa-8-azabicyclo[3.2.1]oct-8-yl)-1,3,5-triazin-2-yl]phenyl}urea]	0.327		3	70.8	28	31.3
O=C(Nc1ccc(C(=O)N2CCN(C3CCCC3)CC2)cc1)Nc1ccc(-c2nc(N3CCOCC3)nc(N3C4CCC3COC4)n2)cc1 [Example 755, 1-{4-[(4-cyclopentylpiperazin-1-yl)carbonyl]phenyl}-3-{4-[4-morpholin-4-yl-6-(3-oxa-8-azabicyclo[3.2.1]oct-8-yl)-1,3,5-triazin-2-yl]phenyl}urea]	0.57		2	13	26.5	3
O=C(Nc1ccc(C(=O)N2CCNCC2)cc1)Nc1ccc(-c2nc(N3CCOCC3)nc(N3C4CCC3COC4)n2)cc1 [Example 756, 1-{4-[4-morpholin-4-yl-6-(3-oxa-8-azabicyclo[3.2.1]oct-8-yl)-1,3,5-triazin-2-yl]phenyl}-3-[4-(piperazin-1-ylcarbonyl)phenyl]urea]	0.2		0.5	12	7	< 3
O=C(Nc1ccc(C(=O)N2CCC(N3CCOCC3)CC2)cc1)Nc1ccc(-c2nc(N3CCOCC3)nc(N3C4CCC3COC4)n2)cc1 [Example 757, 1-{4-[4-morpholin-4-yl-6-(3-oxa-8-azabicyclo[3.2.1]oct-8-yl)-1,3,5-triazin-2-yl]phenyl}-3-{4-[(4-morpholin-4-ylpiperidin-1-yl)carbonyl]phenyl}urea]	0.28		5.5	6	37.5	< 3
O=C(Nc1ccc(C(=O)NCCN2CCCC2)cc1)Nc1ccc(-c2nc(N3CCOCC3)nc(N3C4CCC3COC4)n2)cc1 [Example 758, 4-[({4-[4-morpholin-4-yl-6-(3-oxa-8-azabicyclo[3.2.1]oct-8-yl)-1,3,5-triazin-2-yl]phenyl}carbamoyl)amino]-N-(2-pyrrolidin-1-ylethyl)benzamide]	0.17	3	2	14	16	
O=C(Nc1ccc(C(=O)NCCN2CCCCC2)cc1)Nc1ccc(-c2nc(N3CCOCC3)nc(N3C4CCC3COC4)n2)cc1 [Example 759, 4-[({4-[4-morpholin-4-yl-6-(3-oxa-8-azabicyclo[3.2.1]oct-8-yl)-1,3,5-triazin-2-yl]phenyl}carbamoyl)amino]-N-(2-piperidin-1-ylethyl)benzamide]	0.16	1	2	10	38	
O=C(Nc1ccc(C(=O)N2CCC(N3CCCC3)CC2)cc1)Nc1ccc(-c2nc(N3CCOCC3)nc(N3C4CCC3COC4)n2)cc1 [Example 761, 1-{4-[4-morpholin-4-yl-6-(3-oxa-8-azabicyclo[3.2.1]oct-8-yl)-1,3,5-triazin-2-yl]phenyl}-3-{4-[(4-pyrrolidin-1-ylpiperidin-1-yl)carbonyl]phenyl}urea]	0.12		2	4	19	< 3
O=C(Nc1ccc(C(=O)N2CCSCC2)cc1)Nc1ccc(-c2nc(N3CCOCC3)nc(N3C4CCC3COC4)n2)cc1 [Example 762, 1-{4-[4-morpholin-4-yl-6-(3-oxa-8-azabicyclo[3.2.1]oct-8-yl)-1,3,5-triazin-2-yl]phenyl}-3-[4-(thiomorpholin-4-ylcarbonyl)phenyl]urea]	0.428		2.7	7	19.7	8
O=C(Nc1ccc(C(=O)N2CCOCC2)cc1)Nc1ccc(-c2nc(N3CCOCC3)nc(N3C4CCC3COC4)n2)cc1 [Example 763, 1-[4-(morpholin-4-ylcarbonyl)phenyl]-3-{4-[4-morpholin-4-yl-6-(3-oxa-8-azabicyclo[3.2.1]oct-8-yl)-1,3,5-triazin-2-yl]phenyl}urea]	0.445		3	7	24	4
O=C(Nc1ccc(C(=O)O)cc1)Nc1ccc(-c2nc(N3CCOCC3)nc(N3C4CCC3COC4)n2)cc1 [Example 764, 4-[({4-[4-morpholin-4-yl-6-(3-oxa-8-azabicyclo[3.2.1]oct-8-yl)-1,3,5-triazin-2-yl]phenyl}carbamoyl)amino]benzoic acid]	0.21		8.5	678	67.5	628
O=C(Nc1ccncc1)Nc1ccc(-c2nc(N3CCOCC3)nc(N3C4COCC3COC4)n2)cc1 [Example 765, 1-{4-[4-(3,7-dioxa-9-azabicyclo[3.3.1]non-9-yl)-6-morpholin-4-yl-1,3,5-triazin-2-yl]phenyl}-3-pyridin-4-ylurea]	0.195	21	8.5	27	78.5	
